Assay results published in US5624897A, “Cyclic depsipeptides having 18 ring atoms, and their use for combating endoparasites” (Bayer Aktiengesellschaft, priority 1993, dated 1997).

Legend:
Haemonchus contortus = experiment: In vivo nematode test Haemonchus contortus/sheep; settings: experimentally infected sheep, treated after prepatent period; pure active compound orally and/or intravenously; dose at which nematode egg excretion with the faeces stops completely
Description: Haemonchus contortus/Sheep
Sheep which have been infected experimentally with Haemonchus contortus were treated after the prepatent period had elapsed. The active compounds in the form of the pure active compound were administered orally and/or intravenously.
(§1) The degree of effectiveness is determined by quantitative determination of the nematode eggs excreted with the faeces before and after the treatment.
(§2) If, after the treatment, egg excretion stops completely, the nematodes were aborted or damaged to such an extent that they no longer produce eggs (dosis effectiva).

[1] = system: Trichostrongylus colubriformis; experiment: In vivo nematode test Trichostrongylus colubriformis/sheep; settings: experimentally infected sheep, treated after prepatent period; pure active compound orally and/or intravenously; dose at which nematode egg excretion with the faeces stops completely
Description: Trichostrongylus colubriformis/Sheep
Sheep which have been infected experimentally with Trichostrongylus colubriformis were treated after the prepatent period had elapsed. The active compounds in the form of the pure active compound were administered orally and/or intravenously.
as §1, §2

CC[C@H](C)[C@H]1C(=O)O[C@H](C)C(=O)N(C)[C@@H](C)C(=O)O[C@H](C)C(=O)N(C)[C@@H]([C@@H](C)CC)C(=O)O[C@H](C)C(=O)N1C [Example 1, Cyclo(-N-methyl-L-alanyl-D-lactyl-N-methyl-L-isoleucyl-D-lactyl-N-methyl-L- isoleucyl-D-lactyl-)]
Dosis effectiva (Haemonchus contortus): 10 mg/kg | Dosis effectiva [1]: 10 mg/kg
